Values of other authors in patent US20130344141A1, “CONCENTRATION AND MENTAL PERFORMANCE AMPLIFYING FORMULATION” (priority 2009, published 2013).
Read-outs that look alike come from different tables or passages of the source.

Tests used:
[1] = taken orally
[2] = majority metabolized peripherally
[3] = in vivo, po
[4] = in vivo
[5] = system: cerebral cortex N-methyl-D-aspartate (NMDA) receptor
neurons = conditions: by blocking glutamate-induced neuronal calcium influx and cell death
[6] = system: fungal microorganisms that cause onychomycosis; conditions: Trichophyton rubrum, T. mentagrophytes, Microsporum canis, Epidermophyton floccosum, E. stockdale
neuroblastoma cells = conditions: in vitro
[7] = in vivo; remark: listed apart in the source

1,2-diacyl-:ussn:ueglycero-3-phosphocholine [phosphatidylcholine]
time to maximum serum concentrations [1]: 8 to 12 h

N[C@@H](Cc1ccc(O)c(O)c1)C(=O)O [L-dopa, levodopa]
share that reaches the brain [2]: less than 1%

Cn1c(=O)c2c(ncn2C)n(C)c1=O [caffeine, 1,3,7-trimethylxanthine]
bioavailability [3]: 100%

C/C=C1\[C@H]2C=C(C)C[C@]1(N)c1ccc(=O)[nH]c1C2 [huperzine A, Huperzine A]
blood-brain barrier passage [4]: crosses the blood-brain barrier | affinity as NMDA receptor antagonist [5]: low affinity | protection of neurons against toxic levels of glutamate (neurons): protects neurons | acetylcholine elevation, frontal cortex (acetylcholine; maximal value, frontal cortex): 125% | acetylcholine elevation, parietal cortex (acetylcholine; maximal value, parietal cortex): 105% | acetylcholine elevation, other brain regions (acetylcholine; other brain regions): 22-65%

CC1CCC(C(C)C)C(O)C1 (stereo not shown) [menthol]
activity against fungal microorganisms that cause onychomycosis [6]: active

CN1CCCC1c1cccnc1 (stereo not shown) [nicotine, Nicotine]
elimination half-life (in the body): around two | blood-brain barrier passage (in vivo): crosses the blood-brain barrier

OC[C@H]1O[C@@H](OCCc2ccc(O)cc2)[C@H](O)[C@@H](O)[C@@H]1O [salidroside]
apoptosis of neuroblastoma cells exposed to hydrogen peroxide (neuroblastoma cells): decreases apoptosis

CCOC(=O)C1=C[C@]2(CC)CCCN3CCc4c(n1c1ccccc41)[C@@H]32 [vinpocetine, Eburnamenine-14-carboxylic acid; Ethyl Ester]
drug-induced platelet aggregation (platelet aggregation): inhibits | bioavailability [7]: 7-57% | effect of food on absorption [7]: food significantly enhances absorption
